Measured values: patent US12391723B2, “Steroids and methods of manufacture” (Trustees of Dartmouth College, priority 2017, dated 2025)
Where “and” joins values, the source holds several entries; their conditions need not be identical. Identical values can stand only once.

Columns and labels:
MDA-MB-231 [1] = assay: In vitro growth inhibition (Hoechst 33258 DNA fluorescence, 6 days); format: cell-based; conditions: Homo sapiens, MDA-MB-231, 144 h, concentration that inhibited growth by 50%, 2-fold dilutions from 40 μM
Method: (§1) Fifteen (15) exemplary compounds were investigated for growth inhibition in two cancer cell lines (one for breast and one for pancreatic cancer: MDA-MB-231 and AsPC-1, respectively).
(§2) Procedure: Inhibition of cell growth was accessed by plating 1000 cells per well of a 96-well plate. The following day, compounds were added as 2-fold dilutions from 40 μM (8 wells/concentration). After 6 days, cells were washed, lysed and stained with Hoechst 33258. Fluorescence was read on a microplate spectrofluorometer. Results are expressed as the concentration that inhibited growth by 50% (GI50). See Rao, J., Otto, W. R. Fluorometric DNA assay for cell growth estimation. Anal Biochem. 1992; 207:186-192.

AsPC-1 [2] = assay: as above; format: cell-based; conditions: Homo sapiens, ASPC1, 144 h, concentration that inhibited growth by 50%, 2-fold dilutions from 40 μM
Method: as §1, §2

[3] = test system: MDA-MB-231, AsPC-1, and A549; assay: Growth of several cancer cell lines incubated with Compound 205b; format: cell-based, human; conditions: range across MDA-MB-231, AsPC-1, and A549
Method: as §2
(§3) Compound 205b has been identified as a uniquely potent and selective agonist of ER-β, having an EC50=20 nM for ER-β and an EC50 over 3000 nM for ER-α.

ER-α = molecular target: T1, ER-α (Homo sapiens, UniProt P03372); assay: ER-α agonist activity; format: cell-based
T1 sequence (P03372 1-595): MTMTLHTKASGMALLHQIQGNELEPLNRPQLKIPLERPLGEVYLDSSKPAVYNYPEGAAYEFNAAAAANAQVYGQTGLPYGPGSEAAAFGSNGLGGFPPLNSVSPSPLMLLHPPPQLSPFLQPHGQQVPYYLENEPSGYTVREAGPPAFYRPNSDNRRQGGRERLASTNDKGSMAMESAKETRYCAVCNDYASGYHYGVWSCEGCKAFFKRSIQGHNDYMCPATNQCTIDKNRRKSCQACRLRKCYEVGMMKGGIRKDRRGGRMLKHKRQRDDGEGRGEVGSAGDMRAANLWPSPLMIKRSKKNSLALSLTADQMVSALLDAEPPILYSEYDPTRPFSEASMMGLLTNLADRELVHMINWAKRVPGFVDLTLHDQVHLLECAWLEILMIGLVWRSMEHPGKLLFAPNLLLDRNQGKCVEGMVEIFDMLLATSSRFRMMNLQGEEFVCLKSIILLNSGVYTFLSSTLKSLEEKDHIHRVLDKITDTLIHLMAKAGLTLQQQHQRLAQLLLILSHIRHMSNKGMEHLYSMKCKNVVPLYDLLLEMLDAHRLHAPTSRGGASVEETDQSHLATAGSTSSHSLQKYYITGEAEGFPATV

ER-β = ER-β (Homo sapiens, UniProt Q92731); assay: ER-β agonist activity; format: cell-based
[4] = test system: cancer cell lines (MDA-MB-231, AsPC-1, and A549); assay: Cell cycle analysis and microscopic analysis of cancer cells treated with Compound 205b; format: cell-based, human; conditions: at 0.8-5 μM
Method: as §3

CLK-4 = CLK-4 (Homo sapiens, UniProt Q9HAZ1); assay: Affinity to CLK-4; format: binding; conditions: member of the family of CDC-2-like kinases
[5] = test system: three human cancer cell lines; assay: Growth inhibition by compound 39, total DNA content after 7 days growth; format: cell-based; conditions: 168 h, range across three human cancer cell lines, read-out: 50% inhibitory concentrations
Method: (§4) The following day, ent-steroidal compound 39 was added in 2-fold dilutions (8 wells/concentration). After 7 days growth, cells were lysed and analyzed for total DNA content as described in Montano et al. (See, Montano, R., et al., Mol. Cancer Therap., 11:427-438 [2012]).

MDA-MB-231 [6] = assay: Growth inhibition by Compound 39 (DNA fluorescence, FIG. 3D); format: cell-based; conditions: Homo sapiens, read-out: calculated GI50 against MDA-MB-231
Method: as §4
(§5) Compound 39 was also investigated for growth inhibition in three cancer cell lines: MDA-MB-231, AsPC-1, and U2OS (human osteosarcoma).

[7] = test system: U2OS (human osteosarcoma); assay: as above; format: cell-based; conditions: read-out: calculated GI50 against U2OS
Method: as §4, §5

AsPC-1 [8] = assay: as above; format: cell-based; conditions: Homo sapiens, ASPC1, read-out: calculated GI50 against AsPC-1
Method: as §4, §5

Chain of CLK-4 (Q9HAZ1 whole entry, species assumed): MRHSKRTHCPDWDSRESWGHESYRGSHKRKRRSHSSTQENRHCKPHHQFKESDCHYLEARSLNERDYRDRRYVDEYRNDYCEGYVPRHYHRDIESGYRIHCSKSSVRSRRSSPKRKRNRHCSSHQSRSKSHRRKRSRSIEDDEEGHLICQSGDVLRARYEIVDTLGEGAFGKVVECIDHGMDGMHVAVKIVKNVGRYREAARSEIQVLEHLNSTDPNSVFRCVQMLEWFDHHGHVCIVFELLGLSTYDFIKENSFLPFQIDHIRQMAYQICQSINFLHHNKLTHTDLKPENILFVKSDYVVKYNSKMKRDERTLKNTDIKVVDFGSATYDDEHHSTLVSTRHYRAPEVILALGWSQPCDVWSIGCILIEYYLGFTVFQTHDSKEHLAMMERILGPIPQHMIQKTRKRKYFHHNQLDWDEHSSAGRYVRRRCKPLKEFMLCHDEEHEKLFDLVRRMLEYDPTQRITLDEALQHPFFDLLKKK
Chain of ER-β (Q92731 whole entry, species assumed): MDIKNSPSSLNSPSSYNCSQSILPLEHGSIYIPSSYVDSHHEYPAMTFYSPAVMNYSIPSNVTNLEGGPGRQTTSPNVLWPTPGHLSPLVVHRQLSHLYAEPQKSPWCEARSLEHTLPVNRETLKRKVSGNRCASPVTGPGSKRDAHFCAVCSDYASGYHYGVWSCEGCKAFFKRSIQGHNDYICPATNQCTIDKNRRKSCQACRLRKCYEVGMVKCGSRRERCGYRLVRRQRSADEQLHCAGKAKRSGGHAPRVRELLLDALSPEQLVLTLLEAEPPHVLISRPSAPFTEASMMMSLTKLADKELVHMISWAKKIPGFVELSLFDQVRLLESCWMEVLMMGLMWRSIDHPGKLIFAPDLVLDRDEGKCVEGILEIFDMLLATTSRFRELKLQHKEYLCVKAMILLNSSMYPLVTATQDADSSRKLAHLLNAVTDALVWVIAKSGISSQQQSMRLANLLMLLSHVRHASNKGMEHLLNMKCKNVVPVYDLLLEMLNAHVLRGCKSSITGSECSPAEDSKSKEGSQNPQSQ

COc1ccc2ccc3c(c2c1)CC[C@]1(C)C[C@H](O)C[C@@H]31 [Compound 201b]
GI50 (MDA-MB-231 [1]): 25 µM | GI50 (AsPC-1 [2]): 30 µM

COc1ccc2c(C#Cc3ccccc3)cc3c(c2c1)CC[C@]1(C)C[C@H](O)C[C@@H]31 [Compound 201c]
GI50 (MDA-MB-231 [1]): 20 µM | GI50 (AsPC-1 [2]): 30 µM

C[C@]12CCc3c(cc(Br)c4ccc(O)cc34)[C@@H]1C[C@@H](O)C2 [Compound 205a]
GI50 (MDA-MB-231 [1]): 17 µM | GI50 (AsPC-1 [2]): 10 µM

C[C@]12CCc3c(ccc4ccc(O)cc34)[C@@H]1C[C@@H](O)C2 [Compound 205b]
concentration at which growth was inhibited [3]: 0.8 to 5 µM | EC50 (ER-α): > 3 µM | EC50 (ER-β): 0.02 µM | mitotic arrest by microscopic analysis [4]: cells arrested in mitosis at prometaphase | cell cycle arrest ([4]; parallel experiments): arrested cells in G2/M phase of the cell cycle | Kd (CLK-4): ~0.35 µM | GI50 (MDA-MB-231 [1]): 0.8 µM | GI50 (AsPC-1 [2]): 2 µM

COc1ccc2c(Br)cc3c(c2c1)CC[C@]1(C)C[C@@H](O)C[C@@H]31 [Compound 206a]
GI50 (MDA-MB-231 [1]): 20 µM | GI50 (AsPC-1 [2]): 20 µM

C[C@]12CCc3c(cc(F)c4ccc(O)cc34)[C@@H]1C[C@@H](O)C2 [Compound 208b]
GI50 (MDA-MB-231 [1]): 4 µM | GI50 (AsPC-1 [2]): 8 µM

COc1ccc2c(F)cc3c(c2c1)CC[C@]1(C)C[C@@H](O)C[C@@H]31 [Compound 208c]
GI50 (MDA-MB-231 [1]): 5 µM | GI50 (AsPC-1 [2]): 25 µM

COc1ccc2c(C#Cc3ccccc3)cc3c(c2c1)CC[C@]1(C)C[C@@H](O)C[C@@H]31 [Compound 206c]
GI50 (MDA-MB-231 [1]): 15 µM | GI50 (AsPC-1 [2]): 15 µM

C[C@@]12CC=C3C(=CC(=O)c4ccccc43)[C@H]1C[C@H](O)C2 [Compound 39]
IC50 [5]: 1.2 µM to 4 µM and 0.32 µg/mL to 1.07 µg/mL | GI50 (MDA-MB-231 [6]): 0.32 µg/mL and 1.2 µM | GI50 [7]: ~4 µM | GI50 (AsPC-1 [8]): ~4 µM

C[C@]12CCc3c(cc(C#Cc4ccccc4)c4ccc(O)cc34)[C@@H]1C[C@H](O)C2 [Compound 207c]
GI50 (MDA-MB-231 [1]): 5 µM | GI50 (AsPC-1 [2]): 15 µM

COc1ccc2ccc3c(c2c1)CC[C@]1(C)C[C@@H](O)C[C@@H]31 [Compound 206b]
GI50 (MDA-MB-231 [1]): 30 µM | GI50 (AsPC-1 [2]): 40 µM

COc1ccc2c(Br)cc3c(c2c1)CC[C@]1(C)C[C@H](O)C[C@@H]31 [Compound 201a]
GI50 (MDA-MB-231 [1]): 15 µM | GI50 (AsPC-1 [2]): 15 µM

C[C@]12CCc3c(cc(Br)c4ccc(O)cc34)[C@@H]1C[C@H](O)C2 [Compound 207a]
GI50 (MDA-MB-231 [1]): 30 µM | GI50 (AsPC-1 [2]): 30 µM

C[C@]12CCc3c(ccc4ccc(O)cc34)[C@@H]1C[C@H](O)C2 [Compound 207b]
GI50 (MDA-MB-231 [1]): 20 µM | GI50 (AsPC-1 [2]): 40 µM

C[C@]12CCc3c(cc(C#Cc4ccccc4)c4ccc(O)cc34)[C@@H]1C[C@@H](O)C2 [Compound 205c]
GI50 (MDA-MB-231 [1]): 8 µM | GI50 (AsPC-1 [2]): 9 µM

COc1ccc2c(F)cc3c(c2c1)CC[C@]1(C)C[C@H](O)C[C@@H]31 [Compound 208a]
GI50 (MDA-MB-231 [1]): 25 µM | GI50 (AsPC-1 [2]): 30 µM
